Measurements as given in publication PMC5315062 (Oncology and Therapy, 2016).
“Also recorded” adds a separate entry of the source.

Columns and labels:
BCR–ABL1 = conditions: cited from earlier work
[1] = Stability of ponatinib in rat bio-samples under different storage conditions; format: in vitro ADME; conditions: rat plasma, urine, feces; all RE (%) and RSD (%) below 15%
[2] = healthy subjects, meal within 30 min prior to single oral administration; cited from earlier work
[3] = Tissue distribution in rats after i.g. 15.0 mg/kg; format: in vivo, Sprague–Dawley rats; conditions: for exposure in lung and thyroid: rat, 3, 9, 24 h
[4] = Single- versus multi-dose; conditions: rat
[5] = in vitro; large decrease in solubility with increasing pH; cited from earlier work
[6] = Single-dose pharmacokinetics of ponatinib in rats; format: in vivo, Sprague–Dawley rats; conditions: rat; for half-life: T 1/2, rat; for Tmax: T max
[7] = Toxicity and mortality after repeated intragastric administration in rats; format: in vivo
[8] = both, Sprague-Dawley, in vivo, po, 3.75 mg/kg
[9] = i.g. 3.75 mg/kg once a day for 7 days (multi-dose)
[10] = both, Sprague-Dawley, plasma, iv, 3 mg/kg
[11] = both, Sprague-Dawley, plasma, po, 7.5 mg/kg
[12] = both, Sprague-Dawley, plasma, po, 7.5 mg/kg, i.g. 7.5 mg/kg
[13] = both, Sprague-Dawley, plasma, po, 15 mg/kg
[14] = both, Sprague-Dawley, plasma, po, 15 mg/kg, i.g. 15.0 mg/kg
[15] = both, Sprague-Dawley, plasma, po, 30 mg/kg
[16] = both, Sprague-Dawley, plasma, po, 30 mg/kg, i.g. 30.0 mg/kg

## Cc1ccc(C(=O)Nc2ccc(CN3CCN(C)CC3)c(C(F)(F)F)c2)cc1C#Cc1cnc2cccnn12 [ponatinib, Ponatinib]
BCR–ABL1
  concentration at which BCR–ABL1 is inhibited: above 40 nmol/L
[1]
  stability under various storage conditions: stable
[2]
  effect of a high- or low-fat meal on single-dose pharmacokinetics: no effect
[3]; rat
  distribution into tissues of the body: distributed widely; also recorded: widely distributed
  level in stomach, intestine and liver: fairly low
[3]
  exposure in lung and thyroid: highly exposed; also recorded: highest levels
[3]; listed as Ponatinib
  exposure in lung and thyroid: highest exposure
[4]; [8]
  Cmax: 129 ± 37.6 ng/mL
  Cmax at 7 days: 189 ± 55.7 ng/mL
  Tmax: 10 ± 2.19 h
  Tmax at 7 days: 6.67 ± 3.01 h
  half-life: 11.3 ± 1.46 h
  half-life at 7 days: 10.9 ± 1.56 h
[4]; [9]
  CL: 11.7 ± 1.83 mL/min/kg
  V: 10.85 ± 1.49 L/kg
[4]; i.g. 3.75 mg/kg, single dose
  CL: 29.8 ± 10.2 mL/min/kg
  V: 28.91 ± 9.47 L/kg
[5]
  aqueous solubility: pH-dependent
[6]; [10]
  AUC(0-inf): 2180 ± 462 ng·h/mL
  MRT: 9.77 ± 0.66 h
  clearance: 23.8 mL/min/kg
  concentration at 5 min: 281 ± 129 ng/mL
[6]; both, Sprague-Dawley, plasma, iv, 3 mg/kg, i.v. 3.0 mg/kg
  half-life: 6.17 ± 0.95 h
[6]; [11]
  AUC(0-inf): 1910 ± 353 ng·h/mL
  Cmax: 104 ± 23.4 ng/mL
  MRT: 16.4 ± 1.25 h
[6]; [12]
  half-life: 10.9 ± 1.06 h
  Tmax: 8.4 ± 2.19 h
[6]; [13]
  AUC(0-inf): 5030 ± 1010 ng·h/mL
  Cmax: 285 ± 69 ng/mL
  MRT: 16.7 ± 2.74 h
[6]; [14]
  half-life: 9.7 ± 1.43 h
  Tmax: 8.33 ± 0.82 h
[6]; [15]
  AUC(0-inf): 11600 ± 2890 ng·h/mL
  Cmax: 638 ± 107 ng/mL
  MRT: 16.5 ± 2.36 h
[6]; [16]
  half-life: 9.66 ± 0.81 h
  Tmax: 7.67 ± 0.82 h
[6]; i.g. 7.5 mg/kg
  CL: 67 ± 11.3 mL/min/kg
  V: 63.55 ± 14.02 L/kg
[6]; i.g. 15.0 mg/kg
  CL: 51.2 ± 9.33 mL/min/kg
  V: 42.85 ± 5.01 L/kg
[6]; i.g. 30.0 mg/kg
  CL: 45.3 ± 12.7 mL/min/kg
  V: 37.78 ± 9.26 L/kg
[6]; i.g. 7.5, 15.0, 30.0 mg/kg
  exposure in plasma in relation to dose: dose-dependent exposure
[6]; i.v. 3.0 mg/kg
  V: 12.93 ± 4.37 L/kg
[7]; 3.75 mg/kg consecutive administration for 7 days
  toxicity: Toxicity was displayed to some extent
[7]; repeated intragastric administration over 6 mg/kg
  mortality: increased; also recorded: high mortality
